Where “and” joins values, the source holds several entries; their conditions need not be identical. Equal values may be shown once.
How the values were obtained:
[1] = tested on: HIF-regulated vasoactive mediators; assay: mRNA expression of HIF-regulated vasoactive mediators in retina of STZ-induced diabetic mice (qPCR); assay type: in vivo, mouse; settings: STZ mice, replicates; for Angptl4 mRNA / Vegfa mRNA: S Figure 3B; for Angpt2 mRNA / Ptprb mRNA: S Figure 3C
Protocol: Reverse transcription and quantitative real-time PCR. Total RNA was isolated from cultured cells or retinas with PureLinkTM RNA Mini Kit (Invitrogen #12183025), and cDNA was prepared with MuLV Reverse Transcriptase (Applied Biosystems). Quantitative real-time PCR was performed with Power SYBR Green PCR Master Mix (Applied Biosystems) and MyiQ Real-Time PCR Detection System (Bio-Rad). Normalization was done using cyclophilin A for mouse tissue and human cell lines. Primers are listed in Supplemental Table 2. […]
STZ-induced diabetes mouse model. 8-to-10 week-old male mice received an IP injection of STZ at 40 mg/kg of body weight in 0.1M of citrate buffer (pH 4.5) for 5 consecutive days. Normal chow and 10% sucrose water were provided during this period. 10% sucrose was discontinued and replaced with regular water on experimental day 6. Blood glucose was measured on experimental day 28 after 16 hours fasting and mice with blood glucose level > 250 mg/dL were considered […]
Intraperitoneal (IP) injections. […]

C57BL/6 mice = assay: Flash scotopic ERG after a single intraocular injection; assay type: in vivo, mouse; settings: for A wave / B wave: in µV (unit assumed)
Protocol: Intraocular injections. Intravitreal injections were performed with a PLI-100A Pico-liter Microinjector (Warner Instruments, Harvard Bioscience) using pulled-glass micropipettes. Each micropipette was calibrated to deliver a 1 μl volume on depression of a foot switch. […]
Flash scotopic ERGs. All procedures were performed under dim red light. Mice were dark adapted overnight, anesthetized with ketamine (50 mg/kg) and xylazine (5mg/kg) and pupils were dilated with a topical drop of tropicamide (1%). Scotopic ERG responses were measured using the Celeris ERG stimulator (Diagnosys, Lowell, MA) at flash intensities of 0.025, 0.25, 2.5, 7.96, and 79.06 cd/s/m2. ERGs were measured simultaneously from both eyes with a ground electrode placed into the forehead between the eyes and a reference electrode into the hip. […]

adult mice = settings: i.p. 5 consecutive days, doses up to 80 mg/kg; cited from earlier work
MIO-M1 cells = assay: mRNA angiogenesis array (TaqMan Array qPCR) in MIO-M1 cells; assay type: cell-based, human
Protocol: Angiogenesis array. Total RNA was isolated from MIO-MI cells (8 hours) and HUVECs (16 […]
cDNA was prepared with QuantiTect® Reverse Transcription Kit (Qiagen, Cat# 205311). RT-qPCR assay was performed with pre-configured TaqMan Array 96-Well FAST Plate for human angiogenic gene expression (Applied Biosystems, Inc) following the manufacture’s protocol. Each plate contains pre-defined genes including 18S, GAPDH and HPRT1 endogenous controls.
TaqMan Array plates were prepared by loading on each well 5 μl of cDNA sample (30 ng) with nuclease-free water and 5 μl of TaqMan™ Fast Advanced Master Mix (Applied Biosystem, Cat# […]
4444554). The reaction was performed using the QuantStudio™ 3 Flex Real‐Time PCR System as follows: 2 minutes at 50°C (stage 1); 10 minutes at 95°C (stage 2); 15 seconds at 95°C and 1 minutes at 60°C for 40 cycles (stage 3). The data were analyzed by using HPRT1 as endogenous […]
The clustering heatmaps were produced with “pheatmap” library in R with scale = row and clustering method = complete.
HUVEC cells, Euclidean distance was used to quantify the difference in qPCR screening. The Euclidean distance was calculated using “dist” function from R’s default stat library that measures

[2] = MIO-M1, hypoxia+32-134D, 8 hours, Figure 7G

Brc1ccc2c(-c3csc(-c4c[nH]c5c(Br)cccc45)n3)c[nH]c2c1 [32-134D, 4-(6-bromo-1H-indol-3-yl)-2-(7-bromo-1H-indol-3-yl)thiazole]
Angptl4 mRNA ([1]; 40mg/kg i.p., 40 mg/kg): 0.6634 and 0.674 and 0.6653
Vegfa mRNA ([1]; 40mg/kg i.p., 40 mg/kg): 1.885 and 1.498 and 1.761
Angptl4 mRNA ([1]; 80mg/kg i.p., 80 mg/kg): 0.5186 and 0.5762 and 0.6276
Vegfa mRNA ([1]; 80mg/kg i.p., 80 mg/kg): 1.453 and 1.442 and 1.52
Angpt2 mRNA ([1]; 40mg/kg i.p., 40 mg/kg): 0.559 and 0.5248 and 0.5704
Ptprb mRNA ([1]; 40mg/kg i.p., 40 mg/kg): 0.7022 and 0.6022 and 0.6973
Angpt2 mRNA ([1]; 80mg/kg i.p., 80 mg/kg): 0.5647 and 0.5575 and 0.5047
Ptprb mRNA ([1]; 80mg/kg i.p., 80 mg/kg): 0.8502 and 0.8904 and 0.75
retinal toxicity on ERG (C57BL/6 mice; 32-134D 70, 140, 210, 350 ng single intraocular injection, up to 5 weeks): did not observe any evidence of retina toxicity
A wave (C57BL/6 mice; DAY7, flash 0.25, 140NG): 84.49 and 88.87
A wave (C57BL/6 mice; DAY7, flash 2.5, 140NG): 138.4 and 109.3
A wave (C57BL/6 mice; DAY7, flash 7.96, 140NG): 181.6 and 123.7
B wave (C57BL/6 mice; DAY7, flash 7.96, 140NG): 337.9
B wave (C57BL/6 mice; DAY7, flash 79.06, 140NG): 327.7
B wave (C57BL/6 mice; DAY14, flash 0.025, 70NG): 149.2 and 168.6 and 209.2 and 152.4 and 190.2 and 184.53 and 268.4
B wave (C57BL/6 mice; DAY14, flash 0.025, 140NG): 158.1
A wave (C57BL/6 mice; DAY14, flash 0.25, 70NG): 69.71 and 75.03 and 99.56 and 75.32 and 55.14 and 80.45 and 95.29
B wave (C57BL/6 mice; DAY14, flash 0.25, 70NG): 204.5 and 293.7 and 273.9 and 206.4 and 256.8 and 214.7 and 313
A wave (C57BL/6 mice; DAY14, flash 0.25, 140NG): 76.62 and 123.2
B wave (C57BL/6 mice; DAY14, flash 0.25, 140NG): 209.6
A wave (C57BL/6 mice; DAY14, flash 2.5, 70NG): 116.4 and 108.2 and 136.4 and 117.2 and 152.87 and 100.6 and 158.9
B wave (C57BL/6 mice; DAY14, flash 2.5, 70NG): 215 and 216 and 281.6 and 293.7 and 254.6 and 294.3 and 388.9
A wave (C57BL/6 mice; DAY14, flash 2.5, 140NG): 128 and 175.3
B wave (C57BL/6 mice; DAY14, flash 2.5, 140NG): 257.2
A wave (C57BL/6 mice; DAY14, flash 7.96, 70NG): 135.7 and 102.5 and 159.1 and 157 and 172.6 and 118.4 and 175.8
B wave (C57BL/6 mice; DAY14, flash 7.96, 70NG): 256.6 and 296.2 and 276.2 and 330.1 and 232.5 and 333.4 and 391
A wave (C57BL/6 mice; DAY14, flash 7.96, 140NG): 138.7 and 208.7
B wave (C57BL/6 mice; DAY14, flash 7.96, 140NG): 262.8
A wave (C57BL/6 mice; DAY14, flash 79.06, 70NG): 161.6 and 123.9 and 177.3 and 180.4 and 182.2 and 135.3 and 174.3
B wave (C57BL/6 mice; DAY14, flash 79.06, 70NG): 232.9 and 293.2 and 237.9 and 340.7 and 256.5 and 324.6 and 372.7
A wave (C57BL/6 mice; DAY14, flash 79.06, 140NG): 168.4 and 191
B wave (C57BL/6 mice; DAY14, flash 79.06, 140NG): 300.7
B wave (C57BL/6 mice; DAY21, flash 0.025, 140NG): 129.1
A wave (C57BL/6 mice; DAY21, flash 0.25, 70NG): 76.13 and 75.12 and 97.06 and 99.13 and 63.13 and 91.99 and 97.31
B wave (C57BL/6 mice; DAY21, flash 0.25, 70NG): 236.1 and 170.7 and 170.8 and 248.9 and 189.8 and 286.3 and 297.9
B wave (C57BL/6 mice; DAY21, flash 0.25, 140NG): 175.7
A wave (C57BL/6 mice; DAY21, flash 2.5, 70NG): 112.6 and 110.6 and 152.6 and 169.8 and 108.4 and 159.7 and 165.1
B wave (C57BL/6 mice; DAY21, flash 2.5, 70NG): 298.7 and 211.6 and 203 and 296 and 196.2 and 332.2 and 364.3
A wave (C57BL/6 mice; DAY21, flash 7.96, 70NG): 105.9 and 120.3 and 162.9 and 176.2 and 125.7 and 175.1 and 172
B wave (C57BL/6 mice; DAY21, flash 7.96, 70NG): 315.1 and 232.4 and 223 and 328.4 and 215.9 and 350.1 and 374.6
A wave (C57BL/6 mice; DAY21, flash 7.96, 140NG): 126.8 and 195.8
A wave (C57BL/6 mice; DAY21, flash 79.06, 70NG): 108.1 and 130.3 and 166.3 and 180.2 and 139.8 and 172.8 and 188
B wave (C57BL/6 mice; DAY21, flash 79.06, 70NG): 286.8 and 226.3 and 206.8 and 273.5 and 273.2 and 297.6 and 298.6
A wave (C57BL/6 mice; DAY21, flash 79.06, 140NG): 148.7 and 231
A wave (C57BL/6 mice; DAY28, flash 2.5, 140NG): 148.8 and 128.1
A wave (C57BL/6 mice; DAY28, flash 7.96, 70NG): 118.7 and 202.6 and 114.3 and 192.2 and 119.5 and 102.4 and 173.1
A wave (C57BL/6 mice; DAY28, flash 7.96, 140NG): 168.7
A wave (C57BL/6 mice; DAY28, flash 79.06, 70NG): 125.3 and 187.6 and 118.9 and 161.8 and 121.28 and 110 and 160.6
A wave (C57BL/6 mice; DAY28, flash 79.06, 140NG): 153
A wave (C57BL/6 mice; DAY35, flash 2.5, 140NG): 66
A wave (C57BL/6 mice; DAY35, flash 79.06, 70NG): 74.06 and 95.89 and 102 and 95.42 and 92.65 and 81.18 and 82.72
B wave (C57BL/6 mice; DAY35, flash 79.06, 70NG): 112.4 and 198.3 and 140.3 and 150.2 and 167.5 and 220.3 and 163
systemic tolerability (appearance, behavior, body weight, hemoglobin, hematocrit) (adult mice): well tolerated
reduction in the Euclidean distance between control and hypoxic cell angiogenic gene expression (MIO-M1 cells; MIO-M1, from 73 to 31): 58%
mRNA transcripts of angiogenic genes versus cells cultured in hypoxia (in words) (MIO-M1 cells; MIO-M1, hypoxia + 32-134D): substantially reduced
ANG,RNASE4, angiogenesis array expression (control = 1) (MIO-M1 cells; [2]): 2.068
ANGPTL1, angiogenesis array expression (control = 1) (MIO-M1 cells; [2]): 0.8991
ANGPTL4, angiogenesis array expression (control = 1) (MIO-M1 cells; [2]): 30.9206
CDH5, angiogenesis array expression (control = 1) (MIO-M1 cells; [2]): 0.6144
CEACAM1, angiogenesis array expression (control = 1) (MIO-M1 cells; [2]): 1.055
COL15A1, angiogenesis array expression (control = 1) (MIO-M1 cells; [2]): 1.01
CSF3, angiogenesis array expression (control = 1) (MIO-M1 cells; [2]): 0.9339
FIGF, angiogenesis array expression (control = 1) (MIO-M1 cells; [2]): 1.127
HGF, angiogenesis array expression (control = 1) (MIO-M1 cells; [2]): 0.5689
IL8, angiogenesis array expression (control = 1) (MIO-M1 cells; [2]): 1.45
TIMP2, angiogenesis array expression (control = 1) (MIO-M1 cells; [2]): 0.9298
TIMP3, angiogenesis array expression (control = 1) (MIO-M1 cells; [2]): 0.7612
TNMD, angiogenesis array expression (control = 1) (MIO-M1 cells; [2]): 0.5729
TNNI1, angiogenesis array expression (control = 1) (MIO-M1 cells; [2]): 0.511
VEGFA, angiogenesis array expression (control = 1) (MIO-M1 cells; [2]): 8.239
